Measured values taken from US20180310552A1, “Composition comprising a safener, a fungicide and metalaxyl” (priority 2015, published 2018).

Experiments:
Fusarium culmorum [1] = assay: Fusarium culmorum (wheat)/seed treatment, greenhouse, 7 days at 20° C.; type: in vivo; details: seed treatment
Source text: (§1) According to another aspect of the present invention, in the composition according to the invention, the compound ratio A/B, A/C or A/B/C may be advantageously chosen so as to produce a synergistic effect. A synergistic effect of fungicides is always present when the fungicidal activity of the active compound combinations exceeds the total of the activities of the active compounds when applied individually. The expected activity for a given combination of two or three active compounds can be calculated as follows (cf. Colby, S. R., “Calculating Synergistic and Antagonistic Responses of Herbicide Combinations”, Weeds 1967, 15, 20-22).
(§2) wherein • X denotes the efficacy when using active compound A at an application rate of m ppm (or g/ha), • Y denotes the efficacy when using active compound B (or C) at an application rate of n ppm (or g/ha), • Z denotes the efficacy when using active compound C at an application rate of r ppm (or g/ha), • E1 denotes the efficacy when using active compounds A and B at application rates of m and n ppm (or g/ha), and • E2 denotes the efficacy when using active compounds A and B and C at application rates of m and n and r ppm (or g/ha),
(§3) Here, the efficacy is determined in %. 0% means an efficacy which corresponds to that of the control, whereas an efficacy of 100% means that no infection is observed.
(§4) If the actual fungicidal action exceeds the calculated value, the action of the combination is superadditive, i.e. a synergistic effect is present. In this case, the actually observed efficacy must exceed the value calculated using the above formula for the expected efficacy (E1 or E2).
(§5) The test is performed under greenhouse conditions.
(§6) Active compounds solved in N-methyl-2-pyrrolidon, or combinations thereof were diluted with water to the desired dosages. Wheat seeds were treated with these preparations and sown in 7×7 cm pots filled with 1:1 mix of steamed field soil and sand, mixed with a wheat grain culture of Fusarium culmorum.
Pots were incubated in the greenhouse for 7 days at 20° C. […]

Fusarium culmorum [2] = assay: Fusarium culmorum (wheat)/seed treatment, greenhouse, 7 days at 15° C. (Example 5); type: in vivo; details: seed treatment
Source text: as §1, §2, §3, §4, §5
as §6, with “Commercially available disease control agents, active” for “Active”, “6*6” for “7×7”, “containing 4 cm of a” for “filled with”
Pots were incubated in the greenhouse for 7 days at 15° C.
Assessment consisted of counting of emerged seedlings and diseased plants. 0% means an efficacy which corresponds to that of the untreated control (infection rate was 73%), while an efficacy of 100% means that all seedlings have emerged and are healthy.

CCOC(=O)C1=NN(c2ccc(Cl)cc2Cl)C(C)(C(=O)OCC)C1 (racemic) [Mefenpyr-diethyl, diethyl (RS)-1-(2,4-dichlorophenyl)-5-methyl-2-pyrazoline-3,5-dicarboxylate]
Efficacy in % (Fusarium culmorum [1]; 60 g a.i./dt): 9% | Efficacy in % (Fusarium culmorum [2]; 25 g a.i./kg seed): 9% | Efficacy in % (Fusarium culmorum [2]; 50 g a.i./kg seed): 0%

COCC(=O)N(c1c(C)cccc1C)C(C)C(=O)OC (racemic) [Metalaxyl, methylN-(2,6-dimethylphenyl)-N-(methoxyacetyl)-DL-alaninate]
Efficacy in % (Fusarium culmorum [1]; 6 g a.i./dt): 0% | Efficacy in % (Fusarium culmorum [2]; 2 g a.i./kg seed): 18%

OC(Cc1ccccc1Cl)(Cn1[nH]cnc1=S)C1(Cl)CC1 (stereo not shown) [Prothioconazole, 2-[2-(1-chlorocyclopropyl)-3-(2-chlorophenyl)-2-hydroxypropyl]-1,2-dihydro-3H-1,2,4-triazole-3-thione]
Efficacy in % (Fusarium culmorum [1]; 16 g a.i./dt): 45% | Efficacy in % (Fusarium culmorum [2]; 15 g a.i./kg seed): 64%
